PubChem BioAssay (NCI)
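Following 48 hours of exposure in 96-well plates, responses at five concentrations were used to interpolate endpoints linearly. GI50 is the concentration that inhibits growth by half. The concentration for full growth arrest is given as TGI.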

Experiments:
Assay in all cases: NCI anticancer screen, dose series, 48 h
HS 578T breast = tested on: HS 578T breast
NCI-H460 lung = tested on: NCI-H460 lung
ACHN renal = tested on: ACHN renal
UACC-62 melanoma = tested on: UACC-62 melanoma
HL-60(TB) leukemia = tested on: HL-60(TB) leukemia
SW-620 colon = tested on: SW-620 colon
HOP-92 NSCLC = tested on: HOP-92 NSCLC
HT29 colon = tested on: HT29 colon
786-0 renal = tested on: 786-0 renal
SK-MEL-28 melanoma = tested on: SK-MEL-28 melanoma

Structure (SMILES)	GI50 (HS 578T breast) [µM]	TGI (HS 578T breast) [µM]	GI50 (NCI-H460 lung) [µM]	TGI (NCI-H460 lung) [µM]	GI50 (ACHN renal) [µM]	TGI (ACHN renal) [µM]	GI50 (UACC-62 melanoma) [µM]	TGI (UACC-62 melanoma) [µM]	GI50 (HL-60(TB) leukemia) [µM]	TGI (HL-60(TB) leukemia) [µM]	GI50 (SW-620 colon) [µM]	TGI (SW-620 colon) [µM]	GI50 (HOP-92 NSCLC) [µM]	TGI (HOP-92 NSCLC) [µM]	GI50 (HT29 colon) [µM]	TGI (HT29 colon) [µM]	GI50 (786-0 renal) [µM]	TGI (786-0 renal) [µM]	GI50 (SK-MEL-28 melanoma) [µM]	TGI (SK-MEL-28 melanoma) [µM]
c1ccc(-c2nn3c(c2-c2ccnc4cc(OCCN5CCOCC5)ccc24)CCC3)nc1	> 100	> 100	33.6	> 100	36.3	> 100	> 100	> 100	> 100	> 100	73.2	> 100	> 68.9	> 100	30.3	> 100	> 100	> 100	> 100	> 100
O=[N+]([O-])c1cc[n+]([O-])c2ccccc12	0.216	0.703	0.033	0.162	0.142	0.512	0.231	0.698	1.05	4.29	0.106	0.56	0.13	0.758	0.246	1.09	0.217	0.753	1.24	2.64
Oc1c(C(Nc2ccccc2Br)c2ccccc2)ccc2cccnc12 (stereo not given)	10.7	> 100	0.722	11.7	2.04	> 100	1.39	7.33	2.34	6.25	2.63	25.3	6.51	75.9	3.85	84.3	2.22	6.41	2.46	14.9
O=c1c2c([nH]c3nccn13)CCC2	–	> 10	–	> 10	–	> 10	–	> 10	–	> 10	–	> 10	–	> 10	–	> 10	–	> 10	–	> 10
[2H]C([2H])([2H])NC(=O)c1nnc(NC(=O)C2CC2)cc1Nc1cccc(-c2ncn(C)n2)c1OC	14.7	> 100	> 100	> 100	5.53	> 100	91.6	> 100	14	82.6	41.6	> 100	17.9	> 100	44.6	> 100	28.4	> 100	> 100	> 100
C1=C(c2ccccc2)C(N2CCOCC2)Oc2ccccc21 (stereo not given)	–	> 100	–	> 100	–	> 100	–	> 100	–	> 100	–	> 100	–	> 100	–	> 100	–	> 100	–	> 100
CCCCNNC(=O)c1ccc(Br)cc1	4.27	> 50	2.97	> 50	2.67	> 36.1	1.3	7.51	2.24	> 50	2.17	> 50	1.46	11.4	1.92	> 39	11.8	> 50	1.55	> 35.3
